Measurements reported in PubChem BioAssay AID2060600 (Molecular Pharmacology Branch, DTP, NCI, 2025).

System: 996289-038-R-J1-PDC complex spheroid viability
Experiment: Anticancer human tumor 996289-038-R-J1-PDC patient-derived colon adenocarcinoma cell line growth inhibition [CLK]
Conditions: for IC50: curve of first compound; for viability, T/C: stronger effect = lower value
In short: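 Patient-derived tumor cells grown as complex spheroids with HUVEC endothelial cells and mesenchymal stem cells, treated with drug combinations. Concentrations descend in half-log steps from near clinical Cmax, or from 10 microM if Cmax unknown.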

[1] = second compound 0.0316 µM, first compound 0.0316 µM
[2] = second compound 0.0316 µM, first compound 0.1 µM
[3] = second compound 0.0316 µM, first compound 0.316 µM
[4] = second compound 0.0316 µM, first compound 1 µM
[5] = second compound 0.0316 µM, first compound 3.16 µM
[6] = second compound 0.0316 µM, first compound 10 µM
[7] = second compound 0.1 µM, first compound 0.0316 µM
[8] = second compound 0.1 µM, first compound 0.1 µM
[9] = second compound 0.1 µM, first compound 0.316 µM
[10] = second compound 0.1 µM, first compound 1 µM
[11] = second compound 0.1 µM, first compound 3.16 µM
[12] = second compound 0.1 µM, first compound 10 µM
[13] = second compound 0.316 µM, first compound 0.0316 µM
[14] = second compound 0.316 µM, first compound 0.1 µM
[15] = second compound 0.316 µM, first compound 0.316 µM
[16] = second compound 0.316 µM, first compound 1 µM
[17] = second compound 0.316 µM, first compound 3.16 µM
[18] = second compound 0.316 µM, first compound 10 µM
[19] = second compound 1 µM, first compound 0.0316 µM
[20] = second compound 1 µM, first compound 0.1 µM
[21] = second compound 1 µM, first compound 0.316 µM
[22] = second compound 1 µM, first compound 1 µM
[23] = second compound 1 µM, first compound 3.16 µM
[24] = second compound 1 µM, first compound 10 µM
[25] = second compound 3.16 µM, first compound 0.0316 µM
[26] = second compound 3.16 µM, first compound 0.1 µM
[27] = second compound 3.16 µM, first compound 0.316 µM
[28] = second compound 3.16 µM, first compound 1 µM
[29] = second compound 3.16 µM, first compound 3.16 µM
[30] = second compound 3.16 µM, first compound 10 µM
[31] = second compound 10 µM, first compound 0.0316 µM
[32] = second compound 10 µM, first compound 0.1 µM
[33] = second compound 10 µM, first compound 0.316 µM
[34] = second compound 10 µM, first compound 1 µM
[35] = second compound 10 µM, first compound 3.16 µM
[36] = second compound 10 µM, first compound 10 µM
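Note: spheroids exposed to the agents for 7 days before readout.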

## C=CC(=O)N1CCN(c2nc(=O)n(-c3c(C)ccnc3C(C)C)c3nc(-c4c(O)cccc4F)c(F)cc23)C(C)C1 (stereo unspecified) + CNC(=O)c1ccc(Nc2nc(OC3CCCC3)c3c(-c4ccc5nc(C)oc5c4)c[nH]c3n2)c(OC)c1
Second compound 0.0316 µM
  IC50: > 10 µM
Second compound 0.1 µM
  IC50: > 10 µM
Second compound 0.316 µM
  IC50: > 10 µM
Second compound 1 µM
  IC50: > 10 µM
Second compound 3.16 µM
  IC50: > 10 µM
Second compound 10 µM
  IC50: > 10 µM
[1]
  viability, T/C: 110%
[2]
  viability, T/C: 105%
[3]
  viability, T/C: 109%
[4]
  viability, T/C: 121%
[5]
  viability, T/C: 126%
[6]
  viability, T/C: 121%
[7]
  viability, T/C: 124%
[8]
  viability, T/C: 109%
[9]
  viability, T/C: 121%
[10]
  viability, T/C: 112%
[11]
  viability, T/C: 137%
[12]
  viability, T/C: 123%
[13]
  viability, T/C: 81%
[14]
  viability, T/C: 76.5%
[15]
  viability, T/C: 76.5%
[16]
  viability, T/C: 89.1%
[17]
  viability, T/C: 88.9%
[18]
  viability, T/C: 82%
[19]
  viability, T/C: 68.7%
[20]
  viability, T/C: 63.5%
[21]
  viability, T/C: 66.8%
[22]
  viability, T/C: 68.3%
[23]
  viability, T/C: 74.1%
[24]
  viability, T/C: 68.7%
[25]
  viability, T/C: 57.1%
[26]
  viability, T/C: 59.5%
[27]
  viability, T/C: 59%
[28]
  viability, T/C: 61.7%
[29]
  viability, T/C: 70.3%
[30]
  viability, T/C: 59.2%
[31]
  viability, T/C: 58.7%
[32]
  viability, T/C: 59.9%
[33]
  viability, T/C: 58%
[34]
  viability, T/C: 64.9%
[35]
  viability, T/C: 70.5%
[36]
  viability, T/C: 56.8%

## CCCS(=O)(=O)Nc1ccc(F)c(C(=O)c2c[nH]c3ncc(-c4ccc(Cl)cc4)cc23)c1F + CNC(=O)c1ccc(Nc2nc(OC3CCCC3)c3c(-c4ccc5nc(C)oc5c4)c[nH]c3n2)c(OC)c1
Second compound 0.0316 µM
  IC50: > 10 µM
Second compound 0.1 µM
  IC50: > 10 µM
Second compound 0.316 µM
  IC50: 9.36 µM
Second compound 1 µM
  IC50: 5.68 µM
Second compound 3.16 µM
  IC50: 4.68 µM
Second compound 10 µM
  IC50: 4.51 µM
[1]
  viability, T/C: 125%
[2]
  viability, T/C: 105%
[3]
  viability, T/C: 120%
[4]
  viability, T/C: 131%
[5]
  viability, T/C: 124%
[6]
  viability, T/C: 83.4%
[7]
  viability, T/C: 116%
[8]
  viability, T/C: 133%
[9]
  viability, T/C: 124%
[10]
  viability, T/C: 118%
[11]
  viability, T/C: 119%
[12]
  viability, T/C: 76.7%
[13]
  viability, T/C: 81.2%
[14]
  viability, T/C: 84.5%
[15]
  viability, T/C: 82.8%
[16]
  viability, T/C: 84.8%
[17]
  viability, T/C: 82.7%
[18]
  viability, T/C: 48%
[19]
  viability, T/C: 73.2%
[20]
  viability, T/C: 70%
[21]
  viability, T/C: 64.9%
[22]
  viability, T/C: 70.6%
[23]
  viability, T/C: 64.8%
[24]
  viability, T/C: 35.6%
[25]
  viability, T/C: 63.8%
[26]
  viability, T/C: 67.5%
[27]
  viability, T/C: 64.1%
[28]
  viability, T/C: 68.1%
[29]
  viability, T/C: 58.4%
[30]
  viability, T/C: 31.8%
[31]
  viability, T/C: 62.9%
[32]
  viability, T/C: 60.2%
[33]
  viability, T/C: 59.8%
[34]
  viability, T/C: 66.9%
[35]
  viability, T/C: 60.3%
[36]
  viability, T/C: 26.1%

## COC1C=CCC(C)C(C)S(=O)(=O)NC(=O)c2ccc3c(c2)N(CC2CCC21)CC1(CCCc2cc(Cl)ccc21)CO3 (stereo unspecified) + CNC(=O)c1ccc(Nc2nc(OC3CCCC3)c3c(-c4ccc5nc(C)oc5c4)c[nH]c3n2)c(OC)c1
Second compound 0.0316 µM
  IC50: 6.74 µM
Second compound 0.1 µM
  IC50: 6.73 µM
Second compound 0.316 µM
  IC50: 2.94 µM
Second compound 1 µM
  IC50: 1.18 µM
Second compound 3.16 µM
  IC50: 0.466 µM
Second compound 10 µM
  IC50: 0.519 µM
[1]
  viability, T/C: 131%
[2]
  viability, T/C: 119%
[3]
  viability, T/C: 109%
[4]
  viability, T/C: 92.1%
[5]
  viability, T/C: 74.6%
[6]
  viability, T/C: 37.2%
[7]
  viability, T/C: 124%
[8]
  viability, T/C: 117%
[9]
  viability, T/C: 109%
[10]
  viability, T/C: 85.9%
[11]
  viability, T/C: 72.2%
[12]
  viability, T/C: 39.1%
[13]
  viability, T/C: 91.1%
[14]
  viability, T/C: 78.1%
[15]
  viability, T/C: 74.3%
[16]
  viability, T/C: 57.5%
[17]
  viability, T/C: 52.2%
[18]
  viability, T/C: 36.4%
[19]
  viability, T/C: 71.3%
[20]
  viability, T/C: 65.2%
[21]
  viability, T/C: 58.8%
[22]
  viability, T/C: 49.4%
[23]
  viability, T/C: 45.6%
[24]
  viability, T/C: 34.4%
[25]
  viability, T/C: 70.1%
[26]
  viability, T/C: 59%
[27]
  viability, T/C: 52.2%
[28]
  viability, T/C: 45.7%
[29]
  viability, T/C: 40.4%
[30]
  viability, T/C: 33.1%
[31]
  viability, T/C: 59.3%
[32]
  viability, T/C: 54.4%
[33]
  viability, T/C: 53%
[34]
  viability, T/C: 45.9%
[35]
  viability, T/C: 43.2%
[36]
  viability, T/C: 34%
